Data from the NIST ThermoML archive (doi:10.1021/je900525f).

Assay: xn = mol fraction of the nth substance listed
Details: 101 kPa, Liquid; for viscosity: Capillary tube (Ostwald / Ubbelohde) method; for speed of sound: Pulse-echo method

N#CCc1ccccc1 [benzeneacetonitrile] + CCOC(C)=O
Details | mass density, 303.15 K [kg/m3] | mass density, 308.15 K [kg/m3] | mass density, 313.15 K [kg/m3] | speed of sound, 303.15 K [m/s] | speed of sound, 308.15 K [m/s] | speed of sound, 313.15 K [m/s] | viscosity, 303.15 K [mPa·s] | viscosity, 308.15 K [mPa·s] | viscosity, 313.15 K [mPa·s]
x1 = 0.0198 | 892.4 | 887.4 | 880.8 | 1125.1 | 1109.3 | 1104.3 | 0.396 | 0.376 | 0.357
x1 = 0.1279 | 910.4 | 905.4 | 899.6 | 1173.8 | 1164.8 | 1159.7 | 0.483 | 0.458 | 0.431
x1 = 0.2425 | 926.8 | 922.7 | 916.9 | 1230.8 | 1218.2 | 1209.3 | 0.591 | 0.556 | 0.524
x1 = 0.3589 | 942.3 | 938 | 933.4 | 1286.7 | 1278.4 | 1263.6 | 0.714 | 0.668 | 0.627
x1 = 0.461 | 955.3 | 950.9 | 946.5 | 1326.1 | 1312.5 | 1303.1 | 0.839 | 0.781 | 0.733
x1 = 0.5665 | 967.5 | 963.3 | 958.5 | 1366.7 | 1355.1 | 1344.9 | 0.984 | 0.914 | 0.856
x1 = 0.6978 | 981.5 | 978.1 | 972.4 | 1417.8 | 1410.8 | 1400 | 1.18 | 1.092 | 1.017
x1 = 0.8328 | 994.9 | 991.8 | 985.2 | 1464.3 | 1461.3 | 1446.8 | 1.416 | 1.307 | 1.209
x1 = 0.9745 | 1006.5 | 1002.6 | 998.1 | 1508.3 | 1500.5 | 1490 | 1.695 | 1.554 | 1.43
x1 = 1 | 1008.8 | 1004.1 | 999.5 | 1519.2 | 1512.9 | 1503.4 | 1.761 | 1.602 | 1.489

CCOC(=O)CCl [ethyl chloroethanoate] + N#CCc1ccccc1
Details | mass density, 303.15 K [kg/m3] | mass density, 308.15 K [kg/m3] | mass density, 313.15 K [kg/m3] | speed of sound, 303.15 K [m/s] | speed of sound, 308.15 K [m/s] | speed of sound, 313.15 K [m/s] | viscosity, 303.15 K [mPa·s] | viscosity, 308.15 K [mPa·s] | viscosity, 313.15 K [mPa·s]
x2 = 0 | 1139.3 | 1132.5 | 1125.9 | 1229.4 | 1212.4 | 1197.6 | 0.9692 | 0.8979 | 0.8341
x2 = 0.0205 | 1135.8 | 1129.8 | 1123.2 | 1235.7 | 1218.9 | 1204 | 0.9824 | 0.9115 | 0.8463
x2 = 0.1376 | 1119.2 | 1114.3 | 1107.6 | 1268.8 | 1254 | 1240.4 | 1.069 | 0.9906 | 0.9164
x2 = 0.2585 | 1102.6 | 1098.5 | 1091.7 | 1303.2 | 1291.5 | 1279 | 1.161 | 1.072 | 0.9925
x2 = 0.3793 | 1086.4 | 1083.3 | 1076.2 | 1338.7 | 1328.4 | 1316.6 | 1.254 | 1.155 | 1.07
x2 = 0.4843 | 1072.6 | 1069.8 | 1062.8 | 1370.5 | 1361.6 | 1348.5 | 1.336 | 1.229 | 1.139
x2 = 0.5875 | 1059.3 | 1056.4 | 1049.8 | 1400.6 | 1388.9 | 1381 | 1.419 | 1.302 | 1.207
x2 = 0.7152 | 1043.2 | 1040 | 1034 | 1438.2 | 1426.3 | 1419.9 | 1.523 | 1.394 | 1.292
x2 = 0.8434 | 1027.5 | 1023.7 | 1018.3 | 1476.9 | 1466 | 1457.4 | 1.628 | 1.488 | 1.379
x2 = 0.9764 | 1011.6 | 1007 | 1002.3 | 1516 | 1505.6 | 1495.8 | 1.74 | 1.584 | 1.471

CCOC(=O)CC#N [ethyl cyanoacetate] + N#CCc1ccccc1
Details | mass density, 303.15 K [kg/m3] | mass density, 308.15 K [kg/m3] | mass density, 313.15 K [kg/m3] | speed of sound, 303.15 K [m/s] | speed of sound, 308.15 K [m/s] | speed of sound, 313.15 K [m/s] | viscosity, 303.15 K [mPa·s] | viscosity, 308.15 K [mPa·s] | viscosity, 313.15 K [mPa·s]
x2 = 0 | 1051.4 | 1046.5 | 1040.8 | 1396.9 | 1384.8 | 1367.7 | 2.186 | 1.962 | 1.77
x2 = 0.0223 | 1050.1 | – | 1039.8 | 1399.6 | – | 1370.4 | 2.179 | – | 1.764
x2 = 0.0233 | – | 1045.6 | – | – | 1386.5 | – | – | 1.955 | –
x2 = 0.1383 | 1044.4 | 1040.9 | 1034.8 | 1412.3 | 1397.7 | 1384.6 | 2.135 | 1.917 | 1.733
x2 = 0.2569 | 1038.8 | 1035.9 | 1029.9 | 1424.4 | 1410 | 1399.1 | 2.088 | 1.877 | 1.701
x2 = 0.3778 | 1033.4 | 1030.8 | 1025.3 | 1436 | 1423.7 | 1414.2 | 2.039 | 1.836 | 1.671
x2 = 0.4842 | 1028.9 | 1026.3 | 1021.1 | 1448 | 1436.3 | 1429.2 | 1.995 | 1.799 | 1.644
x2 = 0.5882 | 1024.6 | 1021.8 | 1016.8 | 1461.3 | 1450.4 | 1442 | 1.95 | 1.761 | 1.612
x2 = 0.7172 | 1019.4 | 1016.2 | 1011.4 | 1479.4 | 1468.5 | 1459.4 | 1.893 | 1.713 | 1.572
x2 = 0.8426 | 1014.6 | 1010.9 | 1005.8 | 1496.9 | 1487.6 | 1478 | 1.835 | 1.664 | 1.535
x2 = 0.9759 | 1009.7 | 1005.2 | 1000.4 | 1515.5 | 1508.7 | 1495.9 | 1.773 | 1.612 | 1.496
